Test results published in US20260015325A1, “ALKOXY HETEROARYL- CARBOXAMIDE OR THIOAMIDE COMPOUNDS” (SYNGENTA CROP PROTECTION AG, priority 2022, published 2026).

Legend:
Format in all cases: in vivo
[1] = tested on: Frankliniella occidentalis (Western Flower Thrips); assay: Frankliniella occidentalis (Western Flower Thrips): feeding/contact activity, sunflower leaf discs; conditions: foliar, 168 h, application rate of 200 ppm, mixed ages on sprayed sunflower leaf discs, 7 days after infestation
Description: Example B5: Frankliniella occidentalis (Western Flower Thrips): Feeding/Contact Activity
Sunflower leaf discs were placed on agar in 24-well microtiter plates and sprayed with aqueous test solutions prepared from […] stock solutions. After drying the leaf discs were infested with a Frankliniella population of mixed ages. The samples were assessed for mortality 7 days after infestation.

[2] = tested on: Euschistus heros (Neotropical Brown Stink Bug); assay: Euschistus heros (Neotropical Brown Stink Bug), soybean leaves; conditions: 120 h, application rate of 200 ppm, N2 nymphs on sprayed soybean leaves, 5 days after infestation, read-out: effect in at least one of the two categories (mortality or growth inhibition)
Description: Example B4: Euschistus heros (Neotropical Brown Stink Bug)
Soybean leaves on agar in 24-well microtiter plates were sprayed with aqueous test solutions prepared from 10′000 ppm DMSO stock solutions. After drying the leaves were infested with N2 nymphs. The samples were assessed for mortality and growth inhibition in comparison to untreated samples 5 days after infestation.

[3] = tested on: Myzus persicae (Green Peach Aphid); assay: Myzus persicae (Green Peach Aphid): feeding/contact activity, sunflower leaf discs; conditions: foliar, 144 h, application rate of 200 ppm, mixed ages on sprayed sunflower leaf discs, 6 days after infestation, read-out: mortality
Description: Example B6: Myzus persicae (Green Peach Aphid): Feeding/Contact Activity
Sunflower leaf discs were placed onto agar in a 24-well microtiter plate and sprayed with aqueous test solutions prepared from 10′000 ppm DMSO stock solutions. After drying, the leaf discs were infested with an aphid population of mixed ages. The samples were assessed for mortality 6 days after infestation.

[4] = tested on: Bemisia tabaci (Cotton White Fly); assay: Bemisia tabaci (Cotton White Fly): feeding/contact activity, cotton leaf discs; conditions: foliar, 144 h, application rate of 200 ppm, adult white flies on sprayed cotton leaf discs, 6 days after incubation, read-out: mortality
Description: Example B1: Bemisia tabaci (Cotton White Fly): Feeding/Contact Activity
Cotton leaf discs were placed on agar in 24-well microtiter plates and sprayed with aqueous test solutions prepared from 10′000 ppm DMSO stock solutions. After drying the leaf discs were infested with adult white flies. The samples were checked for mortality 6 days after incubation.

[5] = tested on: Tetranychus urticae (Two-Spotted Spider Mite); assay: whole plant or invertebrate; conditions: foliar, 192 h, application rate of 200 ppm, mixed population (mobile stages) on sprayed bean leaf discs, 8 days after infestation, read-out: mortality
Description: Example B11: Tetranychus urticae (Two-Spotted Spider Mite): Feeding/Contact Activity
Bean leaf discs on agar in 24-well microtiter plates were sprayed with aqueous test solutions prepared from 10′000 ppm DMSO stock solutions. After drying the leaf discs were infested with a mite population of mixed ages. The samples were assessed for mortality on mixed population (mobile stages) 8 days after infestation.

[6] = tested on: Myzus persicae (Green Peach Aphid); assay: Myzus persicae (Green Peach Aphid): intrinsic activity, sucrose solution; conditions: 120 h, test rate of 12 ppm, intrinsic, mixed with sucrose solution under Parafilm, 5 days after infestation, read-out: mortality
Text: Example B8: Myzus persicae (Green Peach Aphid). Intrinsic Activity
Test compounds prepared from 10′000 ppm DMSO stock solutions were applied by pipette into 24-well microtiter plates and mixed with sucrose solution. The plates were closed with a stretched Parafilm. A plastic stencil with 24 holes was placed onto the plate and infested pea seedlings were placed directly on the Parafilm. The infested plate was closed with a gel blotting paper and another plastic stencil and then turned upside down. The samples were assessed for mortality 5 days after infestation.

[7] = tested on: Plutella xylostella (Diamond Back Moth); assay: Plutella xylostella (Diamond Back Moth), artificial diet; conditions: 192 h, application rate of 200 ppm, eggs on treated artificial diet, 8 days after infestation, read-out: effect in at least one of the two categories (mortality or growth inhibition)
Description: Example B9: Plutella xylostella (Diamond Back Moth)
24-well microtiter plates with artificial diet were treated with aqueous test solutions prepared from 10′000 ppm DMSO stock solutions by pipetting. After drying, Plutella eggs were pipetted through a plastic stencil onto a gel blotting paper and the plate was closed with it. The samples were assessed for mortality and growth inhibition in comparison to untreated samples 8 days after infestation.

[8] = tested on: Myzus persicae (Green Peach Aphid); assay: Myzus persicae (Green Peach Aphid): systemic activity, pea seedlings; conditions: 144 h, test rate of 24 ppm, systemic, roots of infested pea seedlings in test solution, 6 days, read-out: mortality
Description: Example B7: Myzus persicae (Green Peach Aphid). Systemic Activity
Roots of pea seedlings infested with an aphid population of mixed ages were placed directly into aqueous test solutions prepared from 10′000 DMSO stock solutions. The samples were assessed for mortality 6 days after placing seedlings into test solutions.

C[C@@H](COc1cnc(Cl)c(C(=O)NCC(F)(F)F)c1)NS(=O)(=O)C(F)(F)F [Compound P-3, 2-chloro-N-(2,2,2-trifluoroethyl)-5-[(2S)-2-(trifluoromethylsulfonylamino)propoxy]pyridine-3-carboxamide]
≥ 80%: mortality at 200 ppm [1] | percent effect (mortality or growth inhibition) at 200 ppm [2] | mortality at 200 ppm [3] | mortality at 200 ppm [4] | mortality at 200 ppm [5] | mortality at 12 ppm [6]

C[C@@H](COc1cnc(Cl)c(C(=O)NC23CC(C2)C3)c1)NS(=O)(=O)C(F)(F)F [Compound P-5, N-(1-bicyclo[1.1.1]pentanyl)-2-chloro-5-[(2S)-2-(trifluoromethylsulfonylamino)propoxy]pyridine-3-carboxamide]
≥ 80%: percent effect (mortality or growth inhibition) at 200 ppm [7] | mortality at 200 ppm [3] | mortality at 24 ppm [8] | mortality at 200 ppm [5] | mortality at 12 ppm [6]

C[C@@H](COc1cnc(Cl)c(C(=O)NC2(C#N)CC2)c1)N(C(=O)OC(C)(C)C)S(=O)(=O)C(F)(F)F [Compound P-6, tert-butyl N-[(1S)-2-[[6-chloro-5-[(1-cyanocyclopropyl)carbamoyl]-3-pyridyl]oxy]-1-methyl-ethyl]-N-(trifluoromethylsulfonyl)carbamate]
≥ 80%: mortality at 200 ppm [1] | percent effect (mortality or growth inhibition) at 200 ppm [2] | mortality at 200 ppm [3] | mortality at 24 ppm [8] | mortality at 200 ppm [4] | mortality at 200 ppm [5] | mortality at 12 ppm [6]

CC(C)C(=O)OCN([C@@H](C)COc1cnc(Cl)c(C(=O)NC2(C#N)CC2)c1)S(=O)(=O)C(F)(F)F [Compound P-9, [[(1S)-2-[[6-chloro-5-[(1-cyanocyclopropyl)carbamoyl]-3-pyridyl]oxy]-1-methyl-ethyl]-(trifluoromethylsulfonyl)amino]methyl 2-methylpropanoate]
≥ 80%: mortality at 200 ppm [1] | mortality at 200 ppm [3] | mortality at 200 ppm [4] | mortality at 12 ppm [6]

C[C@@H](COc1cnc(Cl)c(C(=O)NC2CC2)c1)N(CC#N)S(=O)(=O)C(F)(F)F [Compound P-15, 2-chloro-5-[(2S)-2-[cyanomethyl (trifluoromethylsulfonyl)amino]propoxy]-N-cyclopropyl-pyridine-3-carboxamide]
≥ 80%: percent effect (mortality or growth inhibition) at 200 ppm [2] | mortality at 200 ppm [3] | mortality at 24 ppm [8] | mortality at 200 ppm [4] | mortality at 200 ppm [5] | mortality at 12 ppm [6]

C[C@@H](COc1cnc(Cl)c(C(=O)Nc2ccc(F)cc2F)c1)NS(=O)(=O)C(F)(F)F [Compound P-23, 2-chloro-N-(2,4-difluorophenyl)-5-[(2S)-2-(trifluoromethylsulfonylamino)propoxy]pyridine-3-carboxamide]
≥ 80%: percent effect (mortality or growth inhibition) at 200 ppm [7] | mortality at 200 ppm [4] | mortality at 200 ppm [5] | mortality at 12 ppm [6]

C[C@@H](COc1cnc(Cl)c(C(=O)Nc2ccc(Cl)cc2F)c1)NS(=O)(=O)C(F)(F)F [Compound P-25, 2-chloro-N-(4-chloro-2-fluoro-phenyl)-5-[(2S)-2-(trifluoromethylsulfonylamino)propoxy]pyridine-3-carboxamide]
≥ 80%: percent effect (mortality or growth inhibition) at 200 ppm [7] | mortality at 200 ppm [5]

Cc1ncc(OC[C@H](C)NS(=O)(=O)C(F)(F)F)cc1C(=O)NC(C)c1ncnn1-c1ccc(C#N)cn1 (stereo partly drawn) [Compound P-27, N-[1-[2-(5-cyano-2-pyridyl)-1,2,4-triazol-3-yl]ethyl]-2-methyl-5-[(2S)-2-(trifluoromethylsulfonylamino)propoxy]pyridine-3-carboxamide]
≥ 80%: percent effect (mortality or growth inhibition) at 200 ppm [7]

Cc1ncc(OC[C@H](C)NS(=O)(=O)C(F)(F)F)cc1C(=O)NC1CON(CC(F)(F)F)C1=O (stereo partly drawn) [Compound P-30, 2-methyl-N-[3-oxo-2-(2,2,2-trifluoroethyl)isoxazolidin-4-yl]-5-[(2S)-2-(trifluoromethylsulfonylamino)propoxy]pyridine-3-carboxamide]
≥ 80%: mortality at 200 ppm [1]

Cc1ncc(OC[C@H](C)NS(=O)(=O)C(F)(F)F)cc1C(=O)NC1CCN(c2ccc(F)cc2)C1=O (stereo partly drawn) [Compound P-35, N-[1-(4-fluorophenyl)-2-oxo-pyrrolidin-3-yl]-2-methyl-5-[(2S)-2-(trifluoromethylsulfonylamino)propoxy]pyridine-3-carboxamide]
≥ 80%: mortality at 200 ppm [1]

Cc1nc(C(C)NC(=O)c2cc(OC[C@H](C)NS(=O)(=O)C(F)(F)F)cnc2C)no1 (stereo partly drawn) [Compound P-38, 2-methyl-N-[1-(5-methyl-1,2,4-oxadiazol-3-yl)ethyl]-5-[(2S)-2-(trifluoromethylsulfonylamino)propoxy]pyridine-3-carboxamide]
≥ 80%: percent effect (mortality or growth inhibition) at 200 ppm [7]

Cc1ncc(OC[C@H](C)NS(=O)(=O)C(F)(F)F)cc1C(=O)NOCC1CC1 [Compound P-41, N-(cyclopropylmethoxy)-2-methyl-5-[(2S)-2-(trifluoromethylsulfonylamino)propoxy]pyridine-3-carboxamide]
≥ 80%: percent effect (mortality or growth inhibition) at 200 ppm [7]

C[C@@H](COc1cnc(Cl)c(C(=O)NC2CC2)c1)N(C(=O)OC(C)(C)C)S(=O)(=O)C(F)(F)F [Compound P-42, tert-butyl N-[(1S)-2-[[6-chloro-5-(cyclopropylcarbamoyl)-3-pyridyl]oxy]-1-methyl-ethyl]-N-(trifluoromethylsulfonyl)carbamate]
≥ 80%: mortality at 200 ppm [1] | percent effect (mortality or growth inhibition) at 200 ppm [2] | mortality at 200 ppm [3] | mortality at 200 ppm [5] | mortality at 12 ppm [6]

CC(=O)N([C@@H](C)COc1cnc(Cl)c(C(=O)NC2CC2)c1)S(=O)(=O)C(F)(F)F [Compound P-43, 5-[(2S)-2-[acetyl(trifluoromethylsulfonyl)amino]propoxy]-2-chloro-N-cyclopropyl-pyridine-3-carboxamide]
≥ 80%: mortality at 200 ppm [1] | percent effect (mortality or growth inhibition) at 200 ppm [2] | mortality at 200 ppm [3] | mortality at 24 ppm [8] | mortality at 200 ppm [4] | mortality at 200 ppm [5] | mortality at 12 ppm [6]

C[C@@H](COc1cnc(Cl)c(C(=O)N(C)C2(C#N)CC2)c1)NS(=O)(=O)C(F)(F)F [Compound P-47, 2-chloro-N-(1-cyanocyclopropyl)-N-methyl-5-[(2S)-2-(trifluoromethylsulfonylamino)propoxy]pyridine-3-carboxamide]
≥ 80%: mortality at 200 ppm [1] | mortality at 200 ppm [3] | mortality at 200 ppm [4] | mortality at 12 ppm [6]

C[C@@H](COc1cnc(Cl)c(C(=O)NC2(C#N)CCC2)c1)NS(=O)(=O)C(F)(F)F [Compound P-48, 2-chloro-N-(1-cyanocyclobutyl)-5-[(2S)-2-(trifluoromethylsulfonylamino)propoxy]pyridine-3-carboxamide]
≥ 80%: mortality at 200 ppm [1] | mortality at 200 ppm [3] | mortality at 24 ppm [8] | mortality at 200 ppm [5] | mortality at 12 ppm [6]

Cc1ncc(OC[C@H](C)NS(=O)(=O)C(F)(F)F)cc1C(=O)NC1CC1 [Compound P-62, N-cyclopropyl-2-methyl-5-[(2S)-2-(trifluoromethylsulfonylamino)propoxy]pyridine-3-carboxamide]
≥ 80%: mortality at 200 ppm [1]
